According to PubChem BioAssay (NCI):
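Where inhibition never reached the appropriate level, the endpoint shown equals the highest concentration tested. Otherwise, values were interpolated linearly from a five-concentration, 48-hour dose response in 96-well plates. Abbreviation: GI50, concentration required for 50% inhibition of growth. At the TGI there is no net growth.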

System: MDA-MB-468 breast
Assay: DTP human tumour cell line panel, 48 h

| Structure (SMILES) | GI50 [nM] | TGI [nM] |
| --- | --- | --- |
| C=CC(=O)Nc1cc(N2CCN(CC)CC2)ccc1Nc1cc(N(C)C(=O)Nc2c(Cl)c(OC)cc(OC)c2Cl)ncn1 | 1680 | 4160 |
| c1ccc2c(-c3nc(-c4c[nH]c5ccncc45)cs3)c[nH]c2c1 | 226 | 1510 |
| Cn1cc(C2=C(c3cn(C)c4ccc(Cl)cc34)C(=O)NC2=O)c2ccccc21 | 2860 | 22000 |
| c1ccc(-c2nc(N3CCOCC3)c3c4c(sc3n2)CCCCCC4)nc1 | 4120 | 19000 |
| Cc1nc2ccc(NC(=O)CCNC(=O)CCCc3ccc(CC(C(=O)O)C(=O)O)cc3)cc2s1 | > 100000 | > 100000 |
| COc1ccc(-c2nc(-c3nc4ccc(F)cc4[nH]3)c3ccccn23)cc1 | 4120 | 57100 |
| CCN(c1cc(-c2ccc(CN3CCOCC3)cc2)cc(C(=O)NCc2c(C)cc(C)[nH]c2=O)c1C)C1CCOCC1 | 13400 | 30400 |
| O=C(Oc1ccc(CO[N+](=O)[O-])cc1)c1ccccc1 | 146 | 332 |
| Cc1nc(Nc2cccnc2)sc1C(=O)/C=C/c1ccc(Cl)cc1 | 2890 | 8480 |
| NCCOCCOCCNc1nc(-c2ccc(Cl)cc2)nc(N2CCN(c3ccccn3)CC2)n1 | 1950 | 3990 |
| C#Cc1nc2ccccc2c(=O)[nH]1 | 199 | 486 |
| COc1ccc(C(O)c2cc3c(N)c(C(=O)Nc4cccc(Cl)c4)sc3nc2C)cc1 (stereo unspecified) | 286 | 28400 |
| Cc1cc(O)c(C2=NN(c3ccc(S(N)(=O)=O)cc3)C(c3ccc(Cl)cc3)C2)c(C)c1Cl (stereo unspecified) | 10700 | 24600 |
| COc1cnc2c(c1)C(=O)c1c-2n(CCCNCCO)c(=O)c2ccncc12 | 283 | 1650 |
| COc1cc(C)c(C2NC(=O)c3ccccc3N2)cc1C (stereo unspecified) | 754 | > 100000 |
| O=P1(S)OC[C@H]2O[C@@H]3[C@H](F)[C@@H]2OP(O)(=S)OC[C@H]2O[C@H]([C@H](F)[C@@H]2O1)n1cnc2c(ncnc21)NC/C=C/CNc1ncnc2c1ncn23 (stereo partly specified) | 11500 | > 100000 |
| Cc1nc2c(n1C)C(=O)c1ccccc1C2=O | 25100 | > 100000 |
| COc1ccc2[nH]c(O)c(/C=c3/cc4c(c(-c5ccc(F)c(OC)c5)n3)=Nc3ccccc3-4)c2c1 | 1430 | 2940 |
| Cc1ccc(S(=O)(=O)c2nc(-c3ccccc3)oc2S(C)=O)cc1 (stereo unspecified) | 520 | 2150 |

| Structure (SMILES) | GI50 [nM] | TGI [nM] |
| --- | --- | --- |
| CSCCCNC(=O)c1ccc2c(c1)/C(=C/c1[nH]c(C)cc1C)C(=O)N2 | 481 | > 100000 |
| O=c1[nH]c2nc(NC3CCOCC3)ncc2cc1Oc1ccc(F)cc1F | > 25000 | > 25000 |
| C=C1CCC2(C#N)[C@H]3[C@H](CC[C@@H]2C)[C@@H](C)C[C@@H](CC(C)(C)NC(=O)CN2CCC2=O)[C@H]13 (stereo partly specified) | 3220 | 22900 |
| Cn1cc(-c2ccc3nnc(Sc4ccc5ncccc5c4)n3n2)cn1 | 16400 | > 91400 |
| CCN=C1C=CC(=C(c2ccc(N(CC)CC)cc2)c2ccc(N(CC)CC)cc2)c2ccccc21 | 30.2 | 228 |
| O=c1cc(N/N=C/c2ccc(F)cc2)c2cc(Cl)ccc2[nH]1 | 13300 | 49100 |
| CS(=O)(=O)Nc1cc(-c2ccc3ncc(C#N)c(NCc4ccccc4O)c3c2)cnc1Cl | 173 | 1680 |
| OCc1ccc(-c2cscc2-c2ccc(CO)o2)o1 | 74 | 281 |
| O=C([O][Sn]([O]C(=O)c1ccccn1)([c]1ccccc1)[c]1ccccc1)c1ccccn1 | 1450 | 2760 |
| Cc1nc(Nc2ccccn2)sc1C(=O)/C=C/c1ccc(Cl)cc1 | 395 | 5700 |
| Cc1nn2c(/C=C3/C(=O)Nc4cc(Cl)ccc43)c(-c3ccccc3)nc2s1 | 27700 | > 100000 |
| COc1cc2c(cc1OC)C(=O)/C(=C/c1cc(-c3ccc4c(c3)OCO4)n[nH]1)C2 | 1070 | 2410 |
| O=C1CCC(N2C(=O)c3ccccc3C2=O)C(=O)N1 (stereo unspecified) | > 100000 | > 100000 |
| O=C(Nc1ccc(-c2nc(-c3cccc(OCCN4CCOCC4)c3)c(-c3ccnc(Br)c3)[nH]2)cc1)c1ccccc1 | 1770 | 5700 |
| Cc1c2cc(Cl)c3ccccc3c2c[n+]2ccccc12 | 165 | 570 |
| C1=C2CCCC3=Cc4ccccc4OC23Oc2ccccc21 | 5420 | 69100 |
| O=C(NCCc1ccccn1)OCc1nc2nc(Cl)nc(N3CCOCC3)c2[nH]1 | 1350 | 2880 |
| COc1ccc(C(=O)NNc2nc(Cl)nc(N3CCN(C(c4ccccc4)c4ccccc4)CC3)n2)cc1 | 2500 | 47500 |
| COc1cc(NC(=O)CCSc2nc3ccc(C)cc3c(=O)n2Cc2ccccc2)cc(OC)c1OC | 5390 | > 100000 |
